# Values quoted from earlier work in patent US20050101629A1, “Compositions of a chromene cyclooxygenase-2 selective inhibitor and a cholinergic agent for the treatment of reduced blood flow or trauma to the central nervous system” (Pharmacia Corporation, priority 2003, published 2005).
# Settings: administered to subjects following stroke; Adibhatla et al. (2002) J. Neurochem. 80:12-23
structure (smiles),measurement,value
C[N+](C)(C)CCOP(=O)(O)OP(=O)(O)OC[C@H]1O[C@@H](n2ccc(N)nc2=O)[C@H](O)[C@@H]1O [citicoline],behavioral parameters,improvement in behavioral parameters
same,infarction volume,decrease in infarction volume
